Results published in patent US11957716B2 (Immatics Biotechnologies GmbH, priority 2021, dated 2024).

Columns and labels:
[1] = tested on: HLA-A*01:01, HLA-A*02:01, HLA-A*03:01, HLA-A*24:02, HLA-B*07:02, HLA-B*08:01 and HLA-B*44:02; assay: HLA alleles the peptides bind to (Table 7); format: binding, human; conditions: allotype from the group HLA-A*01:01, HLA-A*02:01, HLA-A*03:01, HLA-A*24:02, HLA-B*07:02, HLA-B*08:01, HLA-B*44:02
Description: However, due to similarities in binding pattern such as the relevant anchoring positions some peptides bind to more than one allele, such an overlap is most likely, but not limited to, HLA-A*01 binding peptides also binding to HLA-B*15, HLA-A*03 binding peptides also binding to HLA-A*11, HLA-B*07 binding peptides also binding to HLA-B*35 and HLA-B*51.

HLA-A*02:01 = HLA-A*02:01 (Homo sapiens, UniProt P04439, D140Y/D185E/D98H/E176V/E277Q/G131W/G231S/I119V/I121R/I166T/I218V/L300P/L318F/N151K/N90K/P208A/P217A/Q86G/Q94H/R138H/R169H/T345S); assay: MHC binding assay, UV-ligand exchange ELISA; conditions: peptide exchange yield, binding to HLA-A*02:01
HLA-A*24:02 = HLA-A*24:02 (Homo sapiens, UniProt P04439, D101N/D140Y/D185E/E176V/E190D/F33S/G103R/G107R/I119L/I121M/I306V/K335N/L105A/L180Q/L300P/N151K/N90K/Q86E/Q94H/R106L/R138H/R89G/T104I/T345S/V100E/W191G/Y123F); assay: MHC binding assay, UV-ligand exchange ELISA; conditions: peptide exchange yield, binding to HLA-A*24:02

10 (ILMILQPQL; listed as Homo sapiens) [compound 10]
Binders (HLA alleles the peptides according to the invention bind to) [1]: HLA-A*02:01
Peptide exchange (HLA-A*02:01): ++++ (≥75% = ++++)

9 (LLGVVSHSV; listed as Homo sapiens) [compound 9]
Binders (HLA alleles the peptides according to the invention bind to) [1]: HLA-A*02:01
Peptide exchange (HLA-A*02:01): ++++ (≥75% = ++++)

102 (FLLLEKGGEL; listed as Homo sapiens) [compound 102]
Binders (HLA alleles the peptides according to the invention bind to) [1]: HLA-A*02:01
Peptide exchange (HLA-A*02:01): ++++ (≥75% = ++++)

82 (VLQSLQHEL; listed as Homo sapiens) [compound 82]
Binders (HLA alleles the peptides according to the invention bind to) [1]: HLA-A*02:01
Peptide exchange (HLA-A*02:01): ++++ (≥75% = ++++)

186 (SQIKSPVVF; listed as Homo sapiens) [compound 186]
Binders (HLA alleles the peptides according to the invention bind to) [1]: HLA-A*24:02
Peptide exchange (HLA-A*24:02): + (10% = +)

40 (LYQTTIELF; listed as Homo sapiens) [compound 40]
Binders (HLA alleles the peptides according to the invention bind to) [1]: HLA-A*24:02
Peptide exchange (HLA-A*24:02): ++++ (75% = ++++)

6 (SHSLPAFTL; listed as Homo sapiens) [compound 6]
Binders (HLA alleles the peptides according to the invention bind to) [1]: HLA-A*24:02
Peptide exchange (HLA-A*24:02): ++ (20% = ++)

45 (SLFPISLTV; listed as Homo sapiens) [compound 45]
Binders (HLA alleles the peptides according to the invention bind to) [1]: HLA-A*02:01
Peptide exchange (HLA-A*02:01): ++++ (≥75% = ++++)

33 (AYIPFPPLI; listed as Homo sapiens) [compound 33]
Binders (HLA alleles the peptides according to the invention bind to) [1]: HLA-A*24:02
Peptide exchange (HLA-A*24:02): ++++ (75% = ++++)

108 (SLQESLPNA; listed as Homo sapiens) [compound 108]
Binders (HLA alleles the peptides according to the invention bind to) [1]: HLA-A*02:01
Peptide exchange (HLA-A*02:01): +++ (≥50% = +++)

167 (FALGPIIKQL; listed as Homo sapiens) [compound 167]
Binders (HLA alleles the peptides according to the invention bind to) [1]: HLA-A*02:01
Peptide exchange (HLA-A*02:01): +++ (≥50% = +++)

7 (IYIPTNSIYKF; listed as Homo sapiens) [compound 7]
Binders (HLA alleles the peptides according to the invention bind to) [1]: HLA-A*24:02
Peptide exchange (HLA-A*24:02): ++++ (75% = ++++)

14 (ILAPPQRISF; listed as Homo sapiens) [compound 14]
Binders (HLA alleles the peptides according to the invention bind to) [1]: HLA-A*24:02
Peptide exchange (HLA-A*24:02): ++++ (75% = ++++)

133 (KFPPSASEF; listed as Homo sapiens) [compound 133]
Binders (HLA alleles the peptides according to the invention bind to) [1]: HLA-A*24:02
Peptide exchange (HLA-A*24:02): ++++ (75% = ++++)

115 (LWEEKPVCL; listed as Homo sapiens) [compound 115]
Binders (HLA alleles the peptides according to the invention bind to) [1]: HLA-A*24:02
Peptide exchange (HLA-A*24:02): ++ (20% = ++)

12 (RLQEGLAAL; listed as Homo sapiens) [compound 12]
Binders (HLA alleles the peptides according to the invention bind to) [1]: HLA-A*02:01
Peptide exchange (HLA-A*02:01): ++++ (≥75% = ++++)

49 (IYFHLNNWTI; listed as Homo sapiens) [compound 49]
Binders (HLA alleles the peptides according to the invention bind to) [1]: HLA-A*24:02
Peptide exchange (HLA-A*24:02): ++++ (75% = ++++)

121 (ILVTAWKGV; listed as Homo sapiens) [compound 121]
Binders (HLA alleles the peptides according to the invention bind to) [1]: HLA-A*02:01
Peptide exchange (HLA-A*02:01): +++ (≥50% = +++)

163 (LWALAIPSL; listed as Homo sapiens) [compound 163]
Binders (HLA alleles the peptides according to the invention bind to) [1]: HLA-A*24:02
Peptide exchange (HLA-A*24:02): +++ (50% = +++)

97 (ALIVLHLSL; listed as Homo sapiens) [compound 97]
Binders (HLA alleles the peptides according to the invention bind to) [1]: HLA-A*02:01
Peptide exchange (HLA-A*02:01): ++ (≥20% = ++)

87 (LHLNPGLSF; listed as Homo sapiens) [compound 87]
Binders (HLA alleles the peptides according to the invention bind to) [1]: HLA-A*24:02
Peptide exchange (HLA-A*24:02): ++ (20% = ++)

160 (EYLGSENVF; listed as Homo sapiens) [compound 160]
Binders (HLA alleles the peptides according to the invention bind to) [1]: HLA-A*24:02
Peptide exchange (HLA-A*24:02): +++ (50% = +++)

132 (LYLETRSEF; listed as Homo sapiens) [compound 132]
Binders (HLA alleles the peptides according to the invention bind to) [1]: HLA-A*24:02
Peptide exchange (HLA-A*24:02): ++++ (75% = ++++)

4 (IQAPALLKV; listed as Homo sapiens) [compound 4]
Binders (HLA alleles the peptides according to the invention bind to) [1]: HLA-A*02:01
Peptide exchange (HLA-A*02:01): ++++ (≥75% = ++++)

123 (TYLESSVRI; listed as Homo sapiens) [compound 123]
Binders (HLA alleles the peptides according to the invention bind to) [1]: HLA-A*24:02
Peptide exchange (HLA-A*24:02): ++++ (75% = ++++)

164 (SHSSPTVSF; listed as Homo sapiens) [compound 164]
Binders (HLA alleles the peptides according to the invention bind to) [1]: HLA-A*24:02
Peptide exchange (HLA-A*24:02): ++ (20% = ++)

3 (VYIASSFKI; listed as Homo sapiens) [compound 3]
Binders (HLA alleles the peptides according to the invention bind to) [1]: HLA-A*24:02
Peptide exchange (HLA-A*24:02): ++++ (75% = ++++)

153 (ALNLSRLTV; listed as Homo sapiens) [compound 153]
Binders (HLA alleles the peptides according to the invention bind to) [1]: HLA-A*02:01
Peptide exchange (HLA-A*02:01): ++++ (≥75% = ++++)

130 (ITPDSIPSV; listed as Homo sapiens) [compound 130]
Binders (HLA alleles the peptides according to the invention bind to) [1]: HLA-A*02:01
Peptide exchange (HLA-A*02:01): +++ (≥50% = +++)

188 (KLPFFTNFL; listed as Homo sapiens) [compound 188]
Binders (HLA alleles the peptides according to the invention bind to) [1]: HLA-A*02:01
Peptide exchange (HLA-A*02:01): ++++ (≥75% = ++++)

118 (RLLRLIPIL; listed as Homo sapiens) [compound 118]
Binders (HLA alleles the peptides according to the invention bind to) [1]: HLA-A*02:01
Peptide exchange (HLA-A*02:01): ++++ (≥75% = ++++)

18 (SLSKLVATV; listed as Homo sapiens) [compound 18]
Binders (HLA alleles the peptides according to the invention bind to) [1]: HLA-A*02:01
Peptide exchange (HLA-A*02:01): ++++ (≥75% = ++++)

165 (FYNPRPPLI; listed as Homo sapiens) [compound 165]
Binders (HLA alleles the peptides according to the invention bind to) [1]: HLA-A*24:02
Peptide exchange (HLA-A*24:02): ++++ (75% = ++++)

42 (LLSRGILIL; listed as Homo sapiens) [compound 42]
Binders (HLA alleles the peptides according to the invention bind to) [1]: HLA-A*02:01
Peptide exchange (HLA-A*02:01): ++++ (≥75% = ++++)

145 (HLFSVLSAI; listed as Homo sapiens) [compound 145]
Binders (HLA alleles the peptides according to the invention bind to) [1]: HLA-A*02:01
Peptide exchange (HLA-A*02:01): ++++ (≥75% = ++++)

194 (VLYPSHSSF; listed as Homo sapiens) [compound 194]
Binders (HLA alleles the peptides according to the invention bind to) [1]: HLA-A*24:02
Peptide exchange (HLA-A*24:02): ++ (20% = ++)

142 (YMLEMDNSMKI; listed as Homo sapiens) [compound 142]
Binders (HLA alleles the peptides according to the invention bind to) [1]: HLA-A*02:01
Peptide exchange (HLA-A*02:01): ++++ (≥75% = ++++)

74 (TLNVLITL; listed as Homo sapiens) [compound 74]
Binders (HLA alleles the peptides according to the invention bind to) [1]: HLA-A*02:01
Peptide exchange (HLA-A*02:01): ++ (≥20% = ++)

57 (IIIDRILLL; listed as Homo sapiens) [compound 57]
Binders (HLA alleles the peptides according to the invention bind to) [1]: HLA-A*02:01
Peptide exchange (HLA-A*02:01): ++++ (≥75% = ++++)

76 (VQSGVPSRF; listed as Homo sapiens) [compound 76]
Binders (HLA alleles the peptides according to the invention bind to) [1]: HLA-A*24:02
Peptide exchange (HLA-A*24:02): ++ (20% = ++)

67 (GRFWLPFNF; listed as Homo sapiens) [compound 67]
Binders (HLA alleles the peptides according to the invention bind to) [1]: HLA-A*24:02
Peptide exchange (HLA-A*24:02): ++ (20% = ++)

80 (IFDLSDPRF; listed as Homo sapiens) [compound 80]
Binders (HLA alleles the peptides according to the invention bind to) [1]: HLA-A*24:02
Peptide exchange (HLA-A*24:02): ++ (20% = ++)

201 (VWILQKVNLAF; listed as Homo sapiens) [compound 201]
Binders (HLA alleles the peptides according to the invention bind to) [1]: HLA-A*24:02
Peptide exchange (HLA-A*24:02): +++ (50% = +++)

31 (VFLLLPYPRF; listed as Homo sapiens) [compound 31]
Binders (HLA alleles the peptides according to the invention bind to) [1]: HLA-A*24:02
Peptide exchange (HLA-A*24:02): ++++ (75% = ++++)

69 (KYPTIICGF; listed as Homo sapiens) [compound 69]
Binders (HLA alleles the peptides according to the invention bind to) [1]: HLA-A*24:02
Peptide exchange (HLA-A*24:02): ++++ (75% = ++++)

62 (SFSLLLPYL; listed as Homo sapiens) [compound 62]
Binders (HLA alleles the peptides according to the invention bind to) [1]: HLA-A*24:02
Peptide exchange (HLA-A*24:02): +++ (50% = +++)

158 (FQLSGPVTF; listed as Homo sapiens) [compound 158]
Binders (HLA alleles the peptides according to the invention bind to) [1]: HLA-A*24:02
Peptide exchange (HLA-A*24:02): ++ (20% = ++)

189 (IWRALGSLF; listed as Homo sapiens) [compound 189]
Binders (HLA alleles the peptides according to the invention bind to) [1]: HLA-A*24:02
Peptide exchange (HLA-A*24:02): ++++ (75% = ++++)

177 (SYLKDHLSL; listed as Homo sapiens) [compound 177]
Binders (HLA alleles the peptides according to the invention bind to) [1]: HLA-A*24:02
Peptide exchange (HLA-A*24:02): ++++ (75% = ++++)
